This assay can be described thus: modulators of MEP2-GFP levels in yeast, dose response, S. cerevisiae, flow cytometry GFP, MLPCN hits (AID 2742).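 Also: GFP tag reports level of MEP2 protein as a downstream target of TOR signalling.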 The following applies: S. cerevisiae MEP2-GFP strain, flow cytometry fluorescence, 3 h; at 33 µM (top of the series). (In general: A flow cytometer gives signals particle by particle.)

The structures appear in SMILES notation. Values joined by “and” are separate entries in the source; they are usually repeats but may differ in a detail not shown here. Identical values can stand only once. Active and inactive are the calls of the source.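 The calls were made as follows: active = fitted half-maximal concentration for changing background-corrected GFP signal at or below a set limit; inactive = the rest.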

As for `O=C(COc1ccc(F)cc1Cl)Nc1nc(-c2ccccn2)cs1`, the GFP fluorescence (kMESF), higher = increase was 4.88 kMESF (inactive).

Regarding `Cc1cc(/C=C2/SC(=S)N(c3cccc(Cl)c3)C2=O)c(C)n1-c1cccnc1`, the GFP fluorescence (kMESF), higher = increase is 8.22 kMESF (inactive).

Take `Fc1cccc(Nc2ncnc3c2cnn3-c2ccccc2)c1`: the GFP fluorescence (kMESF), higher = increase is 2.97 kMESF (inactive).

On to `CCCCS(=O)(=O)/C=C\C=C/S(=O)(=O)CCCC`, for which the GFP fluorescence (kMESF), higher = increase is 5.41 kMESF (inactive).

`COc1cccc(/C=N/Nc2ccc([N+](=O)[O-])cn2)c1O`: the GFP fluorescence (kMESF), higher = increase was 3.24 kMESF (inactive).

As for `COc1ccc(N2C(=O)C(Cl)=C(Nc3c(C)n(C)n(-c4ccccc4)c3=O)C2=O)cc1`, the GFP fluorescence (kMESF), higher = increase is 2.4 kMESF (inactive).

For `CCCc1ccc(OCC(=O)NNC(=S)NC(=O)c2ccco2)cc1`, the GFP fluorescence (kMESF), higher = increase was 9.05 kMESF (inactive).

Take `CC(C)C(=O)NC(c1cccs1)c1cc([N+](=O)[O-])c2cccnc2c1O` (centres undefined): the GFP fluorescence (kMESF), higher = increase was 3.41 kMESF (inactive).

Regarding `Cc1[nH][nH]c(=O)c1C(c1ccc(-c2ccc(Cl)c(Cl)c2)o1)c1c(C)[nH][nH]c1=O`, the GFP fluorescence (kMESF), higher = increase was 4.42 kMESF (inactive).

Take `C#CCOc1c(Br)cc(/C=C2/C(=O)ON=C2C)cc1OC`: the GFP fluorescence (kMESF), higher = increase is 3.64 kMESF (inactive).

Consider `COc1cc(/C=C/[N+](=O)[O-])ccc1O`, for which the GFP fluorescence (kMESF), higher = increase is 3.88 kMESF (inactive).

For the molecule `CCCCCCCCC/C(=N\O)c1ccccn1`, the GFP fluorescence (kMESF), higher = increase was 3.61 kMESF (inactive).

Consider `Nc1nc2ncc(CNc3ccc(C(=O)N[C@@H](CCC(=O)O)C(=O)O)cc3)nc2c(=O)[nH]1`, for which the GFP fluorescence (kMESF), higher = increase was 1.95 kMESF (inactive).

For the molecule `N#Cc1cc([N+](=O)[O-])c(-n2nnc3ccccc32)c([N+](=O)[O-])c1`, the GFP fluorescence (kMESF), higher = increase is 3.54 kMESF (inactive).

Consider `CC[C@]1(c2ccccc2C)ON(c2ccccc2C(F)(F)F)C1=O`, for which the GFP fluorescence (kMESF), higher = increase was 1.97 kMESF (inactive).

As for `Cc1ccc(/C=C2/SC(=S)N(C3CCCCC3)C2=O)o1`, the GFP fluorescence (kMESF), higher = increase was 4.94 kMESF (inactive).

`CSc1nnc2c3cc(F)ccc3n(C)c2n1`: the GFP fluorescence (kMESF), higher = increase was 2.36 kMESF (inactive).

`COc1ccc(N=Nc2ccc(O)c3ncccc23)cc1`: the GFP fluorescence (kMESF), higher = increase was 4.94 kMESF (inactive).

For the molecule `Cc1ccc(/C(N)=N/OC(=O)c2ccc(F)cc2)cc1`, the GFP fluorescence (kMESF), higher = increase was 2.2 kMESF (inactive).

For the molecule `O=C(Nc1ccc(NC(=O)c2cc3ccccc3o2)cc1)c1ccco1`, the GFP fluorescence (kMESF), higher = increase is 2.1 kMESF (inactive).

`O=C1NC(=O)N(c2ccccc2)C(=O)/C1=C/c1ccc(Sc2ccccc2)o1`: the GFP fluorescence (kMESF), higher = increase is 4.03 kMESF (inactive).

Consider `O=C1N(c2ccccc2C(F)(F)F)O[C@@]1(c1ccccc1)C1CCCC1`, for which the GFP fluorescence (kMESF), higher = increase is 2.17 kMESF (inactive).

With `O=C(C#Cc1ccccc1)c1ccco1`, the GFP fluorescence (kMESF), higher = increase was 5.37 kMESF (inactive).

As for `COc1ccccc1C(=O)NNC(=S)NC(=O)c1cccs1`, the GFP fluorescence (kMESF), higher = increase was 4.73 kMESF (inactive).

On to `Oc1ccc2ccccc2c1N=Nc1nccs1`, for which the GFP fluorescence (kMESF), higher = increase was 4.97 kMESF (inactive).

For the molecule `CCN(CC(=O)NC(C)(C)C)C(=O)COc1c(Cl)cc(Cl)c2ccc(C)nc12`, the GFP fluorescence (kMESF), higher = increase was 6.41 kMESF (inactive).

With `O=c1cc(-c2ccccc2)cc(-c2ccccc2)n1O`, the GFP fluorescence (kMESF), higher = increase is 4.49 kMESF (inactive).

Take `Cc1cc(O)c(C(=O)/C=C/c2ccc(Cl)cc2)c(=O)o1`: the GFP fluorescence (kMESF), higher = increase is 4.13 kMESF (inactive).

Regarding `COc1ccc(-c2cc(C(F)(F)F)nc(S(C)(=O)=O)n2)cc1`, the GFP fluorescence (kMESF), higher = increase was 5.2 kMESF (inactive).

Consider `CCN(CC)c1ccc(/C=C2/C(=O)c3ccc(C(=O)O)cc3C2=O)cc1`, for which the GFP fluorescence (kMESF), higher = increase is 3.08 kMESF (inactive).

For the molecule `O=c1/c(=C/c2cccc3ccccc23)sc2ncnn12`, the GFP fluorescence (kMESF), higher = increase is 4.23 kMESF (inactive).

Regarding `N/C(Cc1ccc(Cl)cc1Cl)=N\OC(=O)c1cccs1`, the GFP fluorescence (kMESF), higher = increase is 4.76 kMESF (inactive).

For `COc1ccc(C(=O)NC(=S)NNC(=O)c2cnccn2)cc1OC`, the GFP fluorescence (kMESF), higher = increase is 2.46 kMESF (inactive).

Turning to `O=C(c1ccc(C(=O)N2CCCc3ccccc32)s1)N1CCCc2ccccc21`, the GFP fluorescence (kMESF), higher = increase is 3.28 kMESF (inactive).

`O=C1C=C(Nc2ccc(Cl)cc2)C(=O)N1c1ccc(Cl)cc1`: the GFP fluorescence (kMESF), higher = increase is 1.97 kMESF (inactive).

As for `COC(=O)c1cc(N2C(=O)C3C(C2=O)C2(C)C=CC3(C)O2)ccc1Cl` (centres undefined), the GFP fluorescence (kMESF), higher = increase was 4.8 kMESF (inactive).

Consider `N/C(Cc1ccc(Cl)c(Cl)c1)=N\OC(=O)c1cccs1`, for which the GFP fluorescence (kMESF), higher = increase is 3.66 kMESF (inactive).

Consider `O=C(/C=C/c1ccccc1[N+](=O)[O-])c1ccccc1Br`, for which the GFP fluorescence (kMESF), higher = increase is 62.3 kMESF (inactive).

`CC1=C(C)/C(=N\OS(=O)(=O)c2ccccc2)C=CC1=O`: the GFP fluorescence (kMESF), higher = increase was 4.84 kMESF (inactive).

`COc1ccc(N2C(=O)C(Cl)=C(NCc3ccccc3)C2=O)cc1`: the GFP fluorescence (kMESF), higher = increase is 3.91 kMESF (inactive).

With `N/C(Cc1ccc(Cl)cc1)=N\OC(=O)c1cccc2ccccc12`, the GFP fluorescence (kMESF), higher = increase was 3.73 kMESF (inactive).

For the molecule `Cc1cc(C)c(C)c(S(=O)(=O)ON2C(=O)c3ccccc3C2=O)c1C`, the GFP fluorescence (kMESF), higher = increase was 4.23 kMESF (inactive).

Take `O=C1C=CC(=O)N1c1ccc(Sc2ccc([N+](=O)[O-])cc2)cc1`: the GFP fluorescence (kMESF), higher = increase was 2.59 kMESF (inactive).

For `COC(=O)/C(=C/c1c[nH]c2ccccc12)[N+](=O)[O-]`, the GFP fluorescence (kMESF), higher = increase is 4.87 kMESF (inactive).

In the case of `O=C(/C=C/c1ccccc1)NC(=S)NNC(=O)Cc1cccs1`, the GFP fluorescence (kMESF), higher = increase is 2.02 kMESF (inactive).

With `CCOC(=O)CS(=O)(=O)c1nc(-c2ccccc2)cc(C(F)(F)F)n1`, the GFP fluorescence (kMESF), higher = increase was 6.41 kMESF (inactive).

Consider `COc1ccc([N+](=O)[O-])c(S(=O)(=O)c2ccc(Cl)cc2)n1`, for which the GFP fluorescence (kMESF), higher = increase was 4.42 kMESF (inactive).

As for `O=C1C2C3C=CC(CO)(O3)C2C(=O)N1c1ccc(-c2ccccc2)cc1` (centres undefined), the GFP fluorescence (kMESF), higher = increase is 4.74 kMESF (inactive).

In the case of `Cc1c(NC2=C(Cl)C(=O)N(c3ccccc3Cl)C2=O)c(=O)n(-c2ccccc2)n1C`, the GFP fluorescence (kMESF), higher = increase is 1.97 kMESF (inactive).

In the case of `CC(C)[C@]1(c2ccccc2)ON(c2ccccc2C(F)(F)F)C1=O`, the GFP fluorescence (kMESF), higher = increase is 2.87 kMESF (inactive).

On to `N#C/C(=C\c1cc(Br)ccc1F)C(=O)NC1CC1`, for which the GFP fluorescence (kMESF), higher = increase was 6.77 kMESF (inactive).

In the case of `COc1ccc(N2C(=O)CC(Sc3ncn[nH]3)C2=O)c(OC)c1` (centres undefined), the GFP fluorescence (kMESF), higher = increase is 3.82 kMESF (inactive).

In the case of `CCC(=O)Nc1ccc(NC(=O)c2cc3ccccc3o2)cc1`, the GFP fluorescence (kMESF), higher = increase was 2.2 kMESF (inactive).

Turning to `Cc1cc(NC(c2ccc(Cl)cc2)c2ccc3cccnc3c2O)no1` (centres undefined), the GFP fluorescence (kMESF), higher = increase was 4.11 kMESF (inactive).

In the case of `CCCCCn1c(=O)c(C(=O)Nc2nc3ccccc3[nH]2)c(O)c2ccccc21`, the GFP fluorescence (kMESF), higher = increase was 1.97 kMESF (inactive).

Consider `CC1=C/C(=N\OS(=O)(=O)c2ccccc2)C(C)=CC1=O`, for which the GFP fluorescence (kMESF), higher = increase is -2.25 kMESF (inactive).

Regarding `Oc1ccc2ccccc2c1/C=N/Nc1nnc(-c2ncc[nH]2)c2ccccc12`, the GFP fluorescence (kMESF), higher = increase is -21.2 kMESF (inactive).

Take `O=[N+]([O-])c1ccc(O)c2ncccc12`: the GFP fluorescence (kMESF), higher = increase was 3.94 kMESF (inactive) and 3.38 kMESF (inactive).

Take `C#CCOCCOCCOCCNc1nc(N2CCN(C(=O)CCCCCCCCCCNC(=O)[C@@H](CCC(=O)O)n3cc(CCCCCN)nn3)CC2)nc(N2CCN(C(=O)CCCCCCCCCCNC(=O)[C@H](CCCCN)n3cc(C[C@@H](C)CC)nn3)CC2)n1`: the GFP fluorescence (kMESF), higher = increase was 3.84 kMESF (inactive).

Take `Cc1cc(=O)n2c3c(sc2n1)C(=O)N(Cc1ccccc1)C3=O`: the GFP fluorescence (kMESF), higher = increase is 2.89 kMESF (inactive).

Regarding `CC(C)(C)C1C/C(=C/c2ccccn2)C(=O)/C(=C/c2ccccn2)C1` (centres undefined), the GFP fluorescence (kMESF), higher = increase is 2.67 kMESF (inactive).

On to `O=C(Nc1nnc(-c2ccc3c(c2)CCCC3)o1)c1ccc(Cl)cc1Cl`, for which the GFP fluorescence (kMESF), higher = increase is 3.77 kMESF (inactive).

For `COc1ccc(C(=O)/C=C2/C(=O)Nc3ccccc32)cc1OC`, the GFP fluorescence (kMESF), higher = increase was 2.25 kMESF (inactive).

Turning to `O=C1N(c2ccccc2C(F)(F)F)OC1(Cc1ccccc1)c1ccccc1` (centres undefined), the GFP fluorescence (kMESF), higher = increase was 2.86 kMESF (inactive).

For the molecule `O=c1[nH]c(-c2ccccn2)nc(C(F)(F)F)c1Br`, the GFP fluorescence (kMESF), higher = increase is 4.02 kMESF (inactive).

For the molecule `CC(=O)Oc1cccc(N2C(=O)c3cccc4c([N+](=O)[O-])ccc(c34)C2=O)c1`, the GFP fluorescence (kMESF), higher = increase is 7.84 kMESF (inactive).

For the molecule `Cc1ccccc1N1C(=O)C(Cl)=C(N2CCN(c3ccccc3)CC2)C1=O`, the GFP fluorescence (kMESF), higher = increase is 2.9 kMESF (inactive).

Regarding `O=C1C2C3C=CC(CO)(O3)C2C(=O)N1c1ccccc1-c1ccccc1` (centres undefined), the GFP fluorescence (kMESF), higher = increase was 5.17 kMESF (inactive).

On to `O=C1C(Cl)=C(N2CCN(Cc3ccccc3)CC2)C(=O)N1c1ccccc1`, for which the GFP fluorescence (kMESF), higher = increase was 3.31 kMESF (inactive).

As for `CC(C)[C@@]1(c2ccc(Cl)cc2)ON(c2ccccc2C(F)(F)F)C1=O`, the GFP fluorescence (kMESF), higher = increase is 2.87 kMESF (inactive).

On to `O=C(Nc1nc(-c2ccccn2)cs1)c1cc2ccccc2o1`, for which the GFP fluorescence (kMESF), higher = increase was 5.47 kMESF (inactive).

`O=C(/C=C/c1ccccc1Cl)c1ccccc(=O)c1O`: the GFP fluorescence (kMESF), higher = increase is -0.57 kMESF (inactive).

As for `CCN(CC(=O)Nc1cc(S(=O)(=O)N2CCOCC2)ccc1Cl)Cc1ccccc1`, the GFP fluorescence (kMESF), higher = increase was 2.25 kMESF (inactive).

As to `O=C(O)c1ccccc1SC1CC(=O)N(c2ccc3c(c2)OCO3)C1=O` (centres undefined), the GFP fluorescence (kMESF), higher = increase was 3.4 kMESF (inactive).

The record behind these values is PubChem BioAssay AID2742 (NMMLSC, 2010).
